# Measured values published in US11319299B2, “Substituted carboxamides as inhibitors of WDR5 protein-protein binding” (PROPELLON THERAPEUTICS INC., priority 2016, dated 2022).
# Target: WDR5 (Homo sapiens (Human), UniProt P61964)
# Experiment: Surface Plasmon Resonance (SPR) assay, KD and residence time
# Type: binding
# Conditions: surface plasmon resonance (SPR) assay; read-out: WDR5 binding affinity (KD)
row,Structure (SMILES),Kd [nM]
1,"C[C@@H]1CN(c2cc(F)c(C3=CCN(Cc4ccc(N5CCN(C)CC5)cc4)CC3)cc2NC(=O)c2c[nH]c(=O)cc2C(F)(F)F)C[C@H](C)N1C [Example 166, N-[4-fluoro-5-[1-[[4-(4-methylpiperazin-1-yl)phenyl]methyl]-3,6-dihydro-2H-pyridin-4-yl]-2-[(3R,5S)-3,4,5-trimethylpiperazin-1-yl]phenyl]-6-oxo-4-(trifluoromethyl)-1H-pyridine-3-carboxamide]",0.23
2,"COc1cc(F)cc(C(=O)Nc2cc(-c3cnc(N4CCOCC4)nc3)c(F)cc2N2C[C@@H](C)N(C)[C@@H](C)C2)c1 [Example 190, 3-fluoro-N-[4-fluoro-5-(2-morpholin-4-ylpyrimidin-5-yl)-2-[(3R,5S)-3,4,5-trimethylpiperazin-1-yl]phenyl]-5-methoxybenzamide]",14.7
3,"C[C@@H]1CN(c2cc(F)c(C3=CC4CCC(C3)N4c3ncccn3)cc2NC(=O)c2c[nH]c(=O)cc2C(F)(F)F)C[C@H](C)N1C (stereo partly drawn) [Example 336, N-[4-fluoro-5-(8-pyrimidin-2-yl-8-azabicyclo[3.2.1]oct-2-en-3-yl)-2-[(3R,5S)-3,4,5-trimethylpiperazin-1-yl]phenyl]-6-oxo-4-(trifluoromethyl)-1H-pyridine-3-carboxamide]",12.5
4,"CC1CN(c2cc(F)c(-c3cnc(N4CCOCC4)nc3)cc2NC(=O)c2cccnc2)CCN1C (stereo in doubt) [Example 80, N-[4-fluoro-5-(2-morpholin-4-ylpyrimidin-5-yl)-2-[(3R)-3,4-dimethylpiperazin-1-yl]phenyl]pyridine-3-carboxamide]",> 200
5,"C[C@@H]1CN(c2cc(F)c(-c3ccc(N4CCOCC4)c(Cl)c3)cc2NC(=O)c2c[nH]c(=O)cc2C(F)(F)F)C[C@H](C)N1C [Example 68, N-[5-(3-chloro-4-morpholin-4-ylphenyl)-4-fluoro-2-[(3R,5S)-3,4,5-trimethylpiperazin-1-yl]phenyl]-6-oxo-4-(trifluoromethyl)-1H-pyridine-3-carboxamide]",1.34
6,"C[C@@H]1CN(c2cc(F)c(-c3cnc(N4CCCC4)nc3)cc2NC(=O)c2cn(C)c(=O)cc2C(F)(F)F)C[C@H](C)N1C [Example 210, N-[4-fluoro-5-(2-pyrrolidin-1-ylpyrimidin-5-yl)-2-[(3R,5S)-3,4,5-trimethylpiperazin-1-yl]phenyl]-1-methyl-6-oxo-4-(trifluoromethyl)pyridine-3-carboxamide]",3.86
7,"C[C@@H]1CN(c2cc(F)c(C3=CC4CCC(C3)N4)cc2NC(=O)c2c[nH]c(=O)cc2C(F)(F)F)C[C@H](C)N1C (stereo partly drawn) [Example 330, N-[5-(8-azabicyclo[3.2.1]oct-2-en-3-yl)-4-fluoro-2-[(3R,5S)-3,4,5-trimethylpiperazin-1-yl]phenyl]-6-oxo-4-(trifluoromethyl)-1H-pyridine-3-carboxamide]",5.74
8,"C[C@@H]1CN(c2cc(F)c(-c3ccnc(N4CCOCC4)c3)cc2NC(=O)c2cn(C)c(=O)cc2C(F)(F)F)C[C@H](C)N1C [Example 226, N-[4-fluoro-5-(2-morpholin-4-ylpyridin-4-yl)-2-[(3R,5S)-3,4,5-trimethylpiperazin-1-yl]phenyl]-1-methyl-6-oxo-4-(trifluoromethyl)pyridine-3-carboxamide]",7.99

# More lines, now with the values ahead:
row,Kd [nM],Structure (SMILES)
1,0.439,"C[C@@H]1CN(c2cc(F)c(-c3ccc(N4CCOCC4)c(F)c3)cc2NC(=O)c2c[nH]c(=O)cc2C(F)(F)F)C[C@H](C)N1C [Example 124, N-[4-fluoro-5-(3-fluoro-4-morpholin-4-ylphenyl)-2-[(3R,5S)-3,4,5-trimethylpiperazin-1-yl]phenyl]-6-oxo-4-(trifluoromethyl)-1H-pyridine-3-carboxamide]"
2,> 200,"Cc1csc(C(=O)Nc2cc(-c3cnc(N4CCOCC4)nc3)c(F)cc2N2CCN(C)C(C)C2)n1 (stereo in doubt) [Example 181, N-[4-fluoro-5-(2-morpholin-4-ylpyrimidin-5-yl)-2-[(3R)-3,4-dimethylpiperazin-1-yl]phenyl]-4-methyl-1,3-thiazole-2-carboxamide]"
3,6.28,"C[C@@H]1CN(c2cc(F)c(C3=CCN(Cc4ccc(N5CCOCC5)cc4)CC3)cc2NC(=O)c2c[nH]c(=O)cc2C(F)(F)F)C[C@H](C)N1C [Example 165, N-[4-fluoro-5-[1-[(4-morpholin-4-ylphenyl)methyl]-3,6-dihydro-2H-pyridin-4-yl]-2-[(3R,5S)-3,4,5-trimethylpiperazin-1-yl]phenyl]-6-oxo-4-(trifluoromethyl)-1H-pyridine-3-carboxamide]"

# Same assay, conditions: surface plasmon resonance (SPR); read-out: WDR5 binding affinity (KD)
row,Structure (SMILES),Kd [nM]
1,"C[C@@H]1CN(c2cc(F)c(-c3cnn(CCN4CCOCC4)c3)cc2NC(=O)c2cn(C)c(=O)cc2C(F)F)C[C@H](C)N1C [Example 717, 4-(difluoromethyl)-N-[4-fluoro-5-[1-(2-morpholin-4-ylethyl)pyrazol-4-yl]-2-[(3R,5S)-3,4,5-trimethylpiperazin-1-yl]phenyl]-1-methyl-6-oxopyridine-3-carboxamide]",21.6
2,"CC1CN(c2cc(F)c(-c3cnn(CCN4CCOCC4)c3)cc2NC(=O)c2cn(C)c(=O)cc2C(F)F)CCN1C (stereo in doubt) [Example 715, 4-(difluoromethyl)-N-[4-fluoro-5-[1-(2-morpholin-4-ylethyl)pyrazol-4-yl]-2-[(3R)-3,4-dimethylpiperazin-1-yl]phenyl]-1-methyl-6-oxopyridine-3-carboxamide]",10.9
3,"CC(C)COC(=O)N1CC=C(c2cc(NC(=O)c3c[nH]c(=O)cc3C(F)(F)F)c(N3C[C@@H](C)N(C)[C@@H](C)C3)cc2F)C1 [Example 443, 2-methylpropyl 3-[2-fluoro-5-[[6-oxo-4-(trifluoromethyl)-1H-pyridine-3-carbonyl]amino]-4-[(3R,5S)-3,4,5-trimethylpiperazin-1-yl]phenyl]-2,5-dihydropyrrole-1-carboxylate]",2.37
4,"CCN(CC)[C@@H]1CCN(c2cc(F)c(-c3cnc(N4CCOCC4)nc3)cc2NC(=O)c2c[nH]c(=O)cc2C(F)(F)F)C1 [Example 419, N-[4-fluoro-5-(2-morpholin-4-ylpyrimidin-5-yl)-2-[(3R)-3-(diethylamino)pyrrolidin-1-yl]phenyl]-6-oxo-4-(trifluoromethyl)-1H-pyridine-3-carboxamide]",5.37
5,"C[C@@H]1CN(c2cc(F)c(-c3ccc(C(=O)NC(C)(C)CC(C)(C)C)c(F)c3F)cc2NC(=O)c2c[nH]c(=O)cc2C(F)(F)F)C[C@H](C)N1C [Example 669, N-[5-[2,3-difluoro-4-(2,4,4-trimethylpentan-2-ylcarbamoyl)phenyl]-4-fluoro-2-[(3R,5S)-3,4,5-trimethylpiperazin-1-yl]phenyl]-6-oxo-4-(trifluoromethyl)-1H-pyridine-3-carboxamide]",9.71
6,"C[C@@H]1CN(c2nccc(-c3cc(NC(=O)c4cn(C)c(=O)cc4C(F)(F)F)c(N4C[C@@H](C)N(C)[C@@H](C)C4)cc3F)n2)C[C@H](C)O1 [Example 743, N-[4-fluoro-5-[2-[(2R,6S)-2,6-dimethylmorpholin-4-yl]pyrimidin-4-yl]-2-[(3R,5S)-3,4,5-trimethylpiperazin-1-yl]phenyl]-1-methyl-6-oxo-4-(trifluoromethyl)pyridine-3-carboxamide]",5.22
7,"CC1CN(c2cc(F)c(-c3csc(N4CCOCC4)n3)cc2NC(=O)c2cn(C)c(=O)cc2C(F)F)CCN1C (stereo in doubt) [Example 620, 4-(difluoromethyl)-N-[4-fluoro-5-(2-morpholin-4-yl-1,3-thiazol-4-yl)-2-[(3R)-3,4-dimethylpiperazin-1-yl]phenyl]-1-methyl-6-oxopyridine-3-carboxamide]",4.19
8,"CC1CN(c2cc(F)c(-c3cccc(N4CCOCC4)n3)cc2NC(=O)c2c[nH]c(=O)cc2C(F)F)CCN1C (stereo in doubt) [Example 721, 4-(difluoromethyl)-N-[4-fluoro-5-(6-morpholin-4-ylpyridin-2-yl)-2-[(3R)-3,4-dimethylpiperazin-1-yl]phenyl]-6-oxo-1H-pyridine-3-carboxamide]",1.62

# Next, values leading:
row,Kd [nM],Structure (SMILES)
1,5.64,"C[C@@H]1COCCN1c1ncc(-c2cc(NC(=O)c3c[nH]c(=O)cc3C(F)(F)F)c(N3C[C@@H](C)N(C)[C@@H](C)C3)cc2F)cn1 [Example 469, N-[4-fluoro-5-[2-[(3R)-3-methylmorpholin-4-yl]pyrimidin-5-yl]-2-[(3R,5S)-3,4,5-trimethylpiperazin-1-yl]phenyl]-6-oxo-4-(trifluoromethyl)-1H-pyridine-3-carboxamide]"
2,0.896,"C[C@@H]1CN(c2cc(F)c(-c3cnc4c(c3)CC(=O)N4)cc2NC(=O)c2c[nH]c(=O)cc2C(F)(F)F)C[C@H](C)N1C [Example 566, N-[4-fluoro-5-(2-oxo-1,3-dihydropyrrolo[2,3-b]pyridin-5-yl)-2-[(3R,5S)-3,4,5-trimethylpiperazin-1-yl]phenyl]-6-oxo-4-(trifluoromethyl)-1H-pyridine-3-carboxamide]"
3,2.23,"C[C@@H]1CN(c2cc(F)c(C3=CCN(c4ncc(C#N)s4)CC3)cc2NC(=O)c2c[nH]c(=O)cc2C(F)F)C[C@H](C)N1C [Example 685, N-[5-[1-(5-cyano-1,3-thiazol-2-yl)-3,6-dihydro-2H-pyridin-4-yl]-4-fluoro-2-[(3R,5S)-3,4,5-trimethylpiperazin-1-yl]phenyl]-4-(difluoromethyl)-6-oxo-1H-pyridine-3-carboxamide]"
4,0.271,"CC(C)OC(=O)N1CCC=C(c2cc(NC(=O)c3c[nH]c(=O)cc3C(F)(F)F)c(N3C[C@@H](C)N(C)[C@@H](C)C3)cc2F)C1 [Example 601, propan-2-yl 5-[2-fluoro-5-[[6-oxo-4-(trifluoromethyl)-1H-pyridine-3-carbonyl]amino]-4-[(3R,5S)-3,4,5-trimethylpiperazin-1-yl]phenyl]-3,6-dihydro-2H-pyridine-1-carboxylate]"
5,0.72,"C[C@@H]1CN(c2cc(F)c(C3=CCN(c4ccnc(C#N)n4)CC3)cc2NC(=O)c2c[nH]c(=O)cc2C(F)(F)F)C[C@H](C)N1C [Example 709, N-[5-[1-(2-cyanopyrimidin-4-yl)-3,6-dihydro-2H-pyridin-4-yl]-4-fluoro-2-[(3R,5S)-3,4,5-trimethylpiperazin-1-yl]phenyl]-6-oxo-4-(trifluoromethyl)-1H-pyridine-3-carboxamide]"
